Laboratory results reported in patent US20230313305A1, “METHODS AND USES OF INFLAMMATORY BOWEL DISEASE BIOMARKERS” (Washington University, priority 2017, published 2023).

Legend:
colon spheroids = test: TGFβ on colon spheroids, serpine1/PAI-1 expression; type: cell-based; settings: colon spheroids (FIG. 25)
Excerpt: FIG. 25. TGFβ drives serpine1/PAI-1 expression in the colon spheroids (negative feedback loop)

[1] = tested on: primary intestinal epithelial cells; test: IL-17A added to primary cultured intestinal epithelial cells (microarray, qPCR); type: cell-based, mouse; settings: 20 ng/ml IL-17A
Excerpt: Despite the important role of IL-17 in autoimmunity and inflammatory bowel disease (IBD) its function in the mucosa in disease is still unclear. In IBD, IL-17 is produced in part by mucosal pro-inflammatory Th17 cells. […] To investigate this possibility, we treated primary cultured intestinal epithelial cells with IL-17 and conducted transcriptomic analysis. […] This process was inhibited by PAI-1. […] This study identifies a new pathway in UC where dysregulated PAI-1 leads to exacerbated inflammation and disease activity by blocking an IL-17-tPA-TGF-β axis.
From colon epithelial lines n=4; Stem cells; Stem cells (2 days); DM; Colonocytes; With and without 20 ng/ml IL-17A.
We sought a marker of intestinal inflammation in IBD that is downstream of multiple inflammatory pathways. We first performed RNA microarray analysis on primary mouse intestinal epithelial cells treated these cells with IL-17 (a known important inflammatory cytokine in IBD). We cross-referenced a list of 23 molecules with enhanced mRNA production in these cells grown multiple states to lists of molecules with enhanced expression in IBD colon biopsies. We identified that the Plat/Serpine1 pathway was enriched. […]

Substance | serpine1/PAI-1 expression (colon spheroids) | production of tissue plasminogen activator (tPA) by epithelial cells [1]
TGFβ | drives | 
IL-17: inflammatory cytokine added to primary intestinal epithelial cells |  | induced
